Consider two compounds from patent US4299813A, “Assay kit and method” (priority 1979, dated 1981).

“And” between values parts separate entries of the source, which are not always exact repeats. Identical values can stand only once.

The subject of this experiment is muscarinic cholinergic receptor. The experiment can be described thus: Muscarinic cholinergic radioreceptor assay ([3H] QNB competition, serum antidepressant levels). The experiment is classed as binding, rat (Sprague-Dawley).
Where [1] appears, read: Standard C, 5.0 μM amitriptyline, Table II.
The mark [2] stands for this setting: Standard D, 1.0 μM amitriptyline, Table II.
The mark [3] stands for this setting: Standard E, 0.2 μM amitriptyline, Table II.
[4] abbreviates: Standard C, 50 μM imipramine, Table III.
Where [5] appears, read: Standard D, 10 μM imipramine, Table III.
The mark [6] stands for this setting: Standard E, 2 μM imipramine, Table III.

`CN(C)CCC=C1c2ccccc2CCc2ccccc21` [amitriptyline]: the CPM reads like this: (Sample 1, serum, Table II) 2537 CPM and 2867 CPM; (Sample 2, serum, Table II) 7735 CPM and 7778 CPM and 7386 CPM; (Standard A, 10^-5 M amitriptyline (background), Table II) 533 CPM and 529 CPM and 479 CPM; (Standard A, 10^-5 M amitriptyline (background), imipramine curve, Table III) 533 CPM and 529 CPM and 479 CPM; under setting [1], 1914 CPM and 1790 CPM and 1679 CPM; under setting [2], 5285 CPM and 5442 CPM and 5239 CPM. Also, the CPM runs as follows: under setting [3], 9240 CPM and 9692 CPM; (Standard F, 0.04 μM amitriptyline, Table II) 11235 CPM. Also, the “Logit (B/Bo)” value (Sample 1, serum, Table II) is -0.644 and -0.562; the “Logit (B/Bo)” value (Sample 2, serum, Table II) was 0.288 and 0.295 and 0.227; the “Logit (B/Bo)” value under setting [1] is -0.834 and -0.879 and -0.924; the “Logit (B/Bo)” value under setting [2] was -0.112 and -0.087 and -0.119; the “Logit (B/Bo)” value under setting [3] is 0.595 and 0.716.
As for `CN(C)CCCN1c2ccccc2CCc2ccccc21` [imipramine], the CPM runs as follows: (Sample 1, serum, Table III) 7105 CPM and 7146 CPM and 6773 CPM; (Sample 2, serum, Table III) 9642 CPM and 8636 CPM and 8069 CPM; under setting [4], 4922 CPM and 4908 CPM and 4803 CPM; under setting [5], 8706 CPM and 8704 CPM and 8799 CPM; under setting [6], 10370 CPM and 10617 CPM and 10843 CPM. The “Logit (B/Bo)” value (Sample 1, serum, Table III) is 0.180 and 0.187 and 0.125; the “Logit (B/Bo)” value under setting [4] is -0.171 and -0.173 and -0.191; the “Logit (B/Bo)” value under setting [5] was 0.473 and 0.493; the “Logit (B/Bo)” value under setting [6] is 0.957 and 1.079 and 1.224.
